Test results as given in ChEMBL document CHEMBL1201862, “PubChem BioAssay data set” (2004).
The source made the active and inactive calls.

What was measured:
[1] = target: FAD-linked sulfhydryl oxidase ALR (Homo sapiens, UniProt P55789); test: inhibitors of human ALR sulfhydryl oxidase, dose response, biochemical, H2O2 detection, luminescence, cherry-pick (AID 493248)
[2] = inhibitors of firefly luciferase expression or activity, dose response, H4 neuroglioma cells, luminescence (AID 1990); assay type: functional, cell-based
[3] = tested on: Streptococcus sp. 'group A'; test: growth inhibition of control SK(-) GAS strain, dose response, counter-screen for streptokinase expression inhibitor project, luminescence, kanamycin, BacTiterGlo, confirmation (AID 1900); assay type: functional, organism-based
[4] = Luminescence Cell-Based Dose Response HTS to Identify Inhibitors of 5'UTR Stem-Loop Driven Prion Protein mRNA Translation in H4 Neuroglioblastoma Cells. [Related pubchem assays: 1827 (Project Summary), 1813 (Primary HTS)]; assay type: functional
[5] = inhibitors of SNCA 5'UTR-driven reporter translation, confirmation, H4 neuroglioma cells, luminescence (AID 1988); assay type: functional, cell-based
[6] = tested on: Streptococcus; test: Group A Streptococcus viability loss, dose response, counter-screen for streptokinase expression inhibitor project, luminescence, BacTiterGlo (AID 1915); assay type: functional, organism-based;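 also: potency for reduction of bacterial viability or growth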
[7] = target: T1, Short transient receptor potential channel 4 (Mus musculus, UniProt Q9QUQ5); test: mouse TRPC4 channel activators, dose response, cell-based, HEK293 TRPC4/mu-opioid, Fluo-4 calcium (AID 434937); assay type: functional
T1 sequence (Q9QUQ5 whole entry): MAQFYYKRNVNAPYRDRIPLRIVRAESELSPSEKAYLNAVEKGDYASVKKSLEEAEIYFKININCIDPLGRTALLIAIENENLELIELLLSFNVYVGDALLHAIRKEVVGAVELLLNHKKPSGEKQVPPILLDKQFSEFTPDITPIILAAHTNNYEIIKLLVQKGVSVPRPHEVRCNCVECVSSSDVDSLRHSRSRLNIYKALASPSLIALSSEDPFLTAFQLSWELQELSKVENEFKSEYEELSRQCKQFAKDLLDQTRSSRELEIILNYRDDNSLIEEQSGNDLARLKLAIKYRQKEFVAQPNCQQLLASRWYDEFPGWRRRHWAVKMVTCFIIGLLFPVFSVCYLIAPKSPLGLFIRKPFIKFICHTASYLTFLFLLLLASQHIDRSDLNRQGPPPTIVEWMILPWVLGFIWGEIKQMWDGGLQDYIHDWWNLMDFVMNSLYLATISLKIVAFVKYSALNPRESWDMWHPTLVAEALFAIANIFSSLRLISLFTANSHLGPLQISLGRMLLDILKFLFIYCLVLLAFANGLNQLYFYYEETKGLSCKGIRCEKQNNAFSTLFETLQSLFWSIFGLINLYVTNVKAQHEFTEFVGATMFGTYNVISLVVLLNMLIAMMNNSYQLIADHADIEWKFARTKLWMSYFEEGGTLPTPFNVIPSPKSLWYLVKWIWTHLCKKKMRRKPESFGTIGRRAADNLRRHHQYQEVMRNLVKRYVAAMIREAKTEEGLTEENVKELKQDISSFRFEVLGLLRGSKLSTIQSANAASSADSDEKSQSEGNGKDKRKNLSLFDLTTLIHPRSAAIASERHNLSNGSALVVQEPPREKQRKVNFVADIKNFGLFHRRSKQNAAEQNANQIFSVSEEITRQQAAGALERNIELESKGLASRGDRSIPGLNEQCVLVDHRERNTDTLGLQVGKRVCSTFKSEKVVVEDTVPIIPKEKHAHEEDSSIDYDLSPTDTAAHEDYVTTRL

[8] = target: Genome polyprotein (dengue virus type 2, UniProt P29990); test: Dengue-2 NS5 methyltransferase inhibitors, primary screen, biochemical, confirmation dose response (AID 588689); assay type: functional
[9] = tested on: H9c2; test: cells; assay type: functional, cell-based; conditions: Rattus norvegicus, H9c2, Myocardium;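 also: confirmatory concentration-response retest of ultra-high-throughput screening hits for modulation of myocardial damage; cell death induced by hydrogen peroxide oxidative stress; compound pretreatment for 60 min then peroxide exposure for 2 h; potency is for protecting the cells against peroxide damage rather than for killing them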
[10] = NIH-3T3 fibroblast cytotoxicity, dose response, cytotoxicity control, cell-based, fluorescence, Alamar Blue, secondary assay (AID 2327); assay type: functional;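 also: NIH-3T3 mouse fibroblasts cultured with fluconazole at 8 µg/mL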
[11] = C. albicans growth with fluconazole, confirmation, fluorescence, retest (AID 2467); assay type: functional, cell-based
[12] = inhibitors of intracellular T. cruzi replication, confirmation, NIH3T3 host cells, beta-gal luminescence (AID 2044); assay type: functional, cell-based;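 also: intracellular parasites grown in NIH/3T3 mouse fibroblasts as host cells; luminescent beta-galactosidase reporter signal from transgenic T. cruzi replicating inside host cells; inhibitors lower the luminescence signal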
[13] = cytotoxicity toward NIH3T3 fibroblasts, dose response, counter-screen, cell-based, ATP luminescence, mouse fibroblasts (AID 2010); assay type: functional;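 also: cells exposed to compound for about 90 hours before reading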
[14] = tested on: Vero; test: cells; assay type: functional; conditions: Chlorocebus sabaeus
[15] = target: Glucose-6-phosphate 1-dehydrogenase (Homo sapiens, UniProt P11413); test: human G6PD enzyme inhibitors, dose response, selectivity assay for P. falciparum G6PD inhibitor project, biochemical, fluorescence (AID 504792); assay type: functional
[16] = target: Cytochrome P450 2D6 (Homo sapiens, UniProt P10635);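 also: CYP2D6 member of a cytochrome P450 panel assay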
[17] = target: T2, Cytochrome P450 1A2 (Homo sapiens, UniProt P05177);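 also: PubChem cytochrome P450 panel assay, CYP1A2 panel member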
T2 sequence (P05177 whole entry): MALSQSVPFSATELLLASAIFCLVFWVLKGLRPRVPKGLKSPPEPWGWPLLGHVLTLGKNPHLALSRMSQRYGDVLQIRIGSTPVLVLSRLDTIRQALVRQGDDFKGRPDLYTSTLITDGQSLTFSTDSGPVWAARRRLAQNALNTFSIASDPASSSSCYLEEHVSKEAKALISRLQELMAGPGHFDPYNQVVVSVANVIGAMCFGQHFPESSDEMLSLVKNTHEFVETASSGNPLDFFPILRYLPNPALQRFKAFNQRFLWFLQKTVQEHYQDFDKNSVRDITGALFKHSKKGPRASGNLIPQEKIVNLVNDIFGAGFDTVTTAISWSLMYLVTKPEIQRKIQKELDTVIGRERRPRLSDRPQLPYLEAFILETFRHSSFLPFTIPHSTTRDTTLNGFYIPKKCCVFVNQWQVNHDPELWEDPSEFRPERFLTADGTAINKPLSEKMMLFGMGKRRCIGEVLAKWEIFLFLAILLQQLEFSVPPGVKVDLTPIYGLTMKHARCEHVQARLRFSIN

[18] = target: Cytochrome P450 2C9 (Homo sapiens, UniProt P11712)
[19] = Luminescence Cell-Based Dose Retest to Confirm Inhibitors of Cancer Stem Cells. [Related pubchem assays (depositor defined):AID2717, AID2721]; assay type: functional; conditions: Homo sapiens
[20] = target: Cytochrome P450 3A4 (Homo sapiens, UniProt P08684);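 also: CYP3A4 tested as one member of a cytochrome P450 panel screen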

Cc1cc(C(=O)NNC(=O)CCN2CCN(c3ccccc3)CC2)c2ccccc2n1
AC50 [1]: 5.94 µM (active)

CCOc1ccc(/C=C2/Sc3ccc(C(=O)N4CCN(C(=O)c5ccco5)CC4)cc3N(C)C2=O)cc1OC
EC50 [2]: 105 µM (active) | EC50 [3]: 2.63 µM (active) | EC50 [4]: > 120 µM (not active) | EC50 [5]: 97.7 µM (active) | EC50 [6]: 5.98 µM (active)

Oc1ccc(-c2onc3ccc(Cl)cc23)cc1
AC50 [1]: 6.97 µM (active)

O=C(NCC(=O)N1CCN(c2ccccc2)CC1)c1cccs1
AC50 [1]: 21.4 µM (active)

CCn1c(S)nnc1-c1ccccc1O
AC50 [1]: 9.17 µM (active)

CC1CC(C)CN(CCCNC(=O)c2ccc3c(c2)N(Cc2ccccc2)C(=O)c2ccccc2[S+]3[O-])C1 (stereo not given)
EC50 [7]: 0.841 µM (active)

Sc1nnc(/C=C/c2ccccc2)o1
AC50 [1]: 29.9 µM (active)

CCOc1ccc(N2C(=O)NC(=O)/C(=C\c3ccccc3[N+](=O)[O-])C2=O)cc1
IC50 [8]: 30.5 µM (active)

c1coc(-c2nnc3sc(-c4cccs4)nn23)c1
IC50 [9]: 15.6 µM (active)

CCc1ccc(C(=O)c2cnc3ccc(OC)cc3c2N2CCN(CC)CC2)cc1
EC50 [7]: 5.96 µM (active)

COc1cccc(C(=O)N(C)CC2CCN(CCc3cccc(C(F)(F)F)c3)CC2)c1
EC50 [7]: 0.596 µM (active)

COc1ccccc1C(=O)NNC(=S)NC(=O)c1cc(OC)c(OC)c(OC)c1
EC50 [10]: > 150 µM (inactive) | EC50 [3]: 1.25 µM (active) | EC50 [11]: 2.49 µM (active) | EC50 [12]: 0.158 µM (active) | EC50 [13]: 6.32 µM (active) | EC50 [6]: 2.5 µM (active) | CC50 [14]: 13.6 µM (active)

CCOC(=O)c1ccc(/[N+]([O-])=C/c2ccccc2)cc1
IC50 [15]: > 80 µM (inactive)

Cc1cccc(C(=O)N2CCc3cc(-c4csc(NC(=O)CN5CCCC5)n4)ccc32)c1
CC50 [14]: > 25 µM (active)

CC(C)(C)NS(=O)(=O)c1ccc(NC(=O)c2cc(-c3ccccc3)nc3ccccc23)cc1
EC50 [12]: 2.03 µM (active) | EC50 [13]: > 60 µM (not active) | AC50 [16]: 3.98 µM (inconclusive) | AC50 [17]: 3.16 µM (inconclusive)

CC(C)c1nnc(NC(=O)c2cccc(-n3cnnn3)c2)s1
IC50 [15]: 50 µM (inactive)

CCN(CC)CCCOc1ccc(Cl)c(Cl)c1
EC50 [7]: 2.37 µM (active)

CC(=O)n1cc([C@H]2C=C(C(=O)NCc3ccccc3)O[C@@H](OCc3ccc(CO)cc3)C2)c2ccccc21
EC50 [7]: 8.41 µM (active)

Cc1ccc2nc(O)c(CN(CCCN3CCOCC3)C(=O)Nc3ccc(Cl)cc3)cc2c1
IC50 [9]: > 79 µM (inactive)

Cc1c(/C=C/C(=O)c2ccc(Cl)s2)cnn1C
IC50 [15]: > 80 µM (inactive)

CC(NC(=O)CCSc1nc(-c2ccco2)cc(C(F)(F)F)n1)c1ccccc1 (stereo not given)
AC50 [16]: 15.8 µM (inconclusive) | AC50 [18]: 15.8 µM (inconclusive)

COc1ccc(C(=O)Nc2ccc(OCC(F)(F)C(F)F)c(C(F)(F)F)c2)cc1OC
AC50 [19]: 3.78 µM (active) | AC50 [16]: 22.4 µM (inconclusive)

Cc1cccc(C)c1OCCn1nc(C(=O)O)c2ccccc2c1=O
IC50 [9]: > 79 µM (inactive)

O=c1oc2cc(Br)ccc2n1CSC1=NCCS1
AC50 [1]: 0.033 µM (active)

CN1CCc2nc3ccccc3c(C(=O)OCC(=O)N(CCC#N)c3ccccc3)c2C1
IC50 [9]: > 79 µM (inactive)

COc1ccc(-c2csc(NC(=O)c3cccc(N4C(=O)CCC4=O)c3)n2)cc1OC
IC50 [9]: > 79 µM (inactive)

CC(C)c1ccc(NC2CCCN(C(=O)c3cnc4ccccn4c3=O)C2)cc1 (stereo not given)
AC50 [1]: 8.31 µM (active)

CCOC(=O)C1=C(C)N=C(C)C(=C(O)OCC)C1C(=O)OCC(=O)NC(C)C (stereo not given)
IC50 [9]: > 79 µM (inactive)

CCN(CC(=O)Nc1cc(Cl)ccc1C)C(=O)C1CCN(c2ncnc3sc(C)c(C)c23)CC1
IC50 [9]: 12.7 µM (active)

O=C(N/N=C\c1ccccn1)c1cccc(C(=O)N/N=C\c2ccccn2)n1
IC50 [9]: > 79 µM (inactive)

Cc1ncc(CO)c2cc(C(=O)Nc3ccccc3Cl)/c(=N/c3cccc(C(N)=O)c3)oc12
IC50 [9]: 12.4 µM (active)

COc1cccc(/C=N/NC(=O)CSc2cccc3cccnc23)c1
IC50 [15]: > 80 µM (inactive)

COc1cc(/C=N/N2CCCCC2)cc([N+](=O)[O-])c1O
AC50 [1]: 2.71 µM (active)

C=CCN1CCc2cccc3c2[C@@H]1Cc1ccc(O)c(O)c1-3
AC50 [16]: 31.6 µM (inconclusive) | AC50 [20]: 31.6 µM (inconclusive) | AC50 [18]: 31.6 µM (inconclusive)

O=[N+]([O-])c1ccc(N/N=C/c2cn(Cc3ccc(F)cc3)c3ccccc23)nc1
EC50 [2]: 25.8 µM (active) | EC50 [4]: 15.2 µM (active) | EC50 [5]: 12 µM (active)

COc1ccc(-n2cc(CNCCCn3ccnc3)c(-c3cccc(F)c3)n2)cc1
CC50 [14]: > 25 µM (active)
